The source of these data is US20260124173A1, “THERAPEUTIC ALKALOID COMPOUNDS” (Sensorium Therapeutics, Inc., priority 2023, published 2026).

The conditions of series [1]: in vivo; cited from earlier work.
Series [2] has as its target T1, SERT (Homo sapiens, UniProt P31645).
T1 construct: expressed in transfected cells
The series can be described thus: SERT inhibition assay (Neurotransmitter Transportation Fluorescence assay, stable 5 HTT cells). The format is cell-based. As to the method: SERT inhibition can be measured using a Neurotransmitter Transportation Fluorescence assay. Briefly, stable 5 HTT cells were prepared in a 384 microwell plate. Compounds were prepared in assay buffer (20 mM HEPES, 0.1% BSA). The compounds were added to the plated cells and incubated for 30 minutes at 37° C. 25 μL of dye solution (Molecular Devices Neurotransmitter Transporter Uptake Assay Kit) is added per well and incubated for 30 minutes at 37° C. The plates are then read on a plate reader.

The nature of series [3]: Intestinal S9 metabolic stability, human. The format is in vitro ADME. As to the method: (§1) A master solution was prepared according to the Table B2 below.
(§2) Add 222.5 μL of master solution and 25 μL of 10 mM NADPH solution to the incubation plates. Pre-warm for 10 min. The reaction was started with the addition of 2.5 μL of 100 μM control compound or test compound solutions. Verapamil, Midazolam and Testosterone were used as positive control in this study. The final concentration of control compounds and test compounds was 1 μM. Aliquots of 25 μL were taken from the reaction solution at 0.5, 5, 15, 30, 45 and 60 minutes. The reaction was stopped by the addition of 5 volumes of cold acetonitrile with IS (100 nM alprazolam, 200 nM caffeine and 100 nM tolbutamide). Samples were centrifuged at 3, 220 g for 30 minutes. Aliquot of 100 μL of the supernatant was mixed with 100 μL of ultra-pure H2O and then used for LC-MS/MS analysis.
(§3) All calculations were carried out using Microsoft Excel. Peak areas were determined from extracted ion chromatograms. The slope value, k, was determined by linear regression of the natural logarithm of the remaining percentage of the parent drug vs. incubation time curve. The in vitro half-life (in vitro t1/2) was determined from the slope value:
(§4) Conversion of the in vitro t1/2 (min) into the in vitro intrinsic clearance (in vitro CLint, in uL/min/mg protein) was done using the following equation (mean of duplicate determinations): […]
The metabolic stability of Compound 243 was tested in human, monkey, dog and rat (2 replicate measurement). For comparison, verapamil was tested in human and monkey (2 replicates), midazolam was tested in dog (2 replicates), and testosterone was tested in rat (2 replicates).

Series [4] is classed as in vitro ADME, dog. As to the method: as §1, §2, §3, §4
The nature of series [5]: Intestinal S9 metabolic stability, rat. The format is in vitro ADME. The procedure: as §1, §2, §3, §4

For orientation: IC50 means the concentration at which inhibition is half-maximal. A higher IC50 goes with weaker potency. What is called half-life is how long it takes for the measured level to halve. Read a low half-life as rapid decline.

Read-outs that look alike come from different tables or passages of the source.

T1 sequence (P31645 whole entry, species assumed): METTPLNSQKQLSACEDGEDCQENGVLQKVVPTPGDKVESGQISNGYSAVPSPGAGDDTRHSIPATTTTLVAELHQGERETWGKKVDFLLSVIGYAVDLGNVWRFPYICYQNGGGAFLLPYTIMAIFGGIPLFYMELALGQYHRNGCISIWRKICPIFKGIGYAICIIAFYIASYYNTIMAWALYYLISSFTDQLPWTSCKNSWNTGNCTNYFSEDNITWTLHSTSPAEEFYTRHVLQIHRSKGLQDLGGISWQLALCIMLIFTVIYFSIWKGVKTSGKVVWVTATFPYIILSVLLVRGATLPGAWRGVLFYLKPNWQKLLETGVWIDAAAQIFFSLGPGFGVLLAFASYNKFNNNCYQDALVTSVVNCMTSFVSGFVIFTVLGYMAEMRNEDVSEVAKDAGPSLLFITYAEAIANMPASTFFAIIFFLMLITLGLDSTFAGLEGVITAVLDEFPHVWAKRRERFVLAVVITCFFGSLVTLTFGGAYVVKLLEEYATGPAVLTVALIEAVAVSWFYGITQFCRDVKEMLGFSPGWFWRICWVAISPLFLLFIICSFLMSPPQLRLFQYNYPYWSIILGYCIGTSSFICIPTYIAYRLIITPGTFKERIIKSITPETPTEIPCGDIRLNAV

Take `COc1ccc([C@@]23CCC(=O)C[C@@H]2N(C)CC3)cc1OC` [Compound 001, (−)-Mesembrine]: the half-life in plasma result in series [1] is given as “less than 2 hours”.
For the compound `COc1ccc([C@@]23CC=C(C)C[C@@H]2N(C)CC3)cc1OC` [Compound 242, (3aS,7aS)-3a-(3,4-dimethoxyphenyl)-1,6-dimethyl-2,3,3a,4,7,7a-hexahydro-1H-indole], the IC50 in series [2] (Table B1) was less than 50 nM.
On to `COc1ccc([C@@]23CCC(C)=C[C@@H]2N(C)CC3)cc1OC` [Compound 243, (3aS,7aS)-3a-(3,4-dimethoxyphenyl)-1,6-dimethyl-2,3,3a,4,5,7a-hexahydro-1H-indole], for which, in series [2] (Table B1), the IC50 is less than 50 nM. For the same compound, the “median half-life, times greater than verapamil” value in series [3] turned out to be 33 times. The “median CLint (micrograms/min/mg protein), times greater for verapamil than Compound 243” value in series [3] (human, 1 µM) is listed as “more than 23 times”. The half-life at 1 µM in series [3] (human, s9) was greater than 24 h. Also, in series [4], the “median half-life, times greater than the half-life of midazolam” value was “more than 168 times”. The “median CLint (micrograms/min/mg protein), times greater for midazolam than Compound 243” value in series [4] (dog, 1 µM) is recorded as “more than 164 times”. In series [5] (1 µM), the “median CLint (micrograms/min/mg protein), times greater for testosterone than Compound 243” value is “about 30 times”. The “median half-life, times greater than the half-life of testosterone” value in series [5] (Compound 243 versus testosterone) is on record as “about 30 times”.
In turn, `COc1ccc([C@@]23CC=C(C)C[C@@H]2N(C)CC3)cc1OC` [drawing 203] came in with an IC50 in series [2] of less than 50 nM.
In turn, `COc1ccc([C@@]23CCC(C)=C[C@@H]2N(C)CC3)cc1OC` [drawing 204] came in with an IC50 in series [2] of less than 50 nM.
Still for that read-out and setting: the figure for `COc1ccc([C@@]23CCC(C)=C[C@@H]2N(C)CC3)cc1OC` [drawing 205] is less than 50 nM.
